Measurements taken from patent US20240300937A1, “Substituted 6-(Pyrimidin-4-yl)Quinoline Compounds as Cyclin Dependent Kinase Inhibitors” (BeiGene, Ltd., priority 2022, published 2024).

Legend:
CDK6/Cyclin D3 = CDK6/Cyclin D3 (Homo sapiens (Human), UniProt Q00534); test: CDK6/Cyclin D3 kinase TR-FRET inhibition assay; type: biochemical; conditions: 1 mM ATP, Rb (Ser780)-biotin substrate, read-out: CDK6D3 IC50
Method: (§1) Compounds disclosed herein were tested for inhibition of CDK4/Cyclin D1 or CDK6/Cyclin D3 kinase in an assay based on the time-resolved fluorescence-resonance energy transfer (TR-FRET) methodology. The assay was carried out in 384-well low volume black plates in a reaction mixture containing CDK4/Cyclin D1 or CDK6/Cyclin D3, 1 mM ATP, 0.15 μM Rb (Ser780)-biotin substrate and 0-10 μM compound in buffer containing 50 mM HEPES pH7.0, 0.02% NaN3, 0.01% BSA, 0.1 mM Orthovanadate, 50 mM MgCl2, 1 mM DTT and 0.005% Tween-20. The kinase was incubated with compound for 60 minutes at room temperature and the reaction was initiated by the addition of ATP and Rb (Ser780)-biotin substrate. After reaction at room temperature for 120 minutes, an equal volume of stop/detection solution was added according to the manufacture's instruction (Cisbio Bioassays). The stop/detection solution contained Streptavidin-XL665 and Anti-pRb (Ser780) mAb-Eu Cryptate in Detection buffer (Cisbio Bioassays). Plates were incubated at room temperature for 60 minutes, and the TR-FRET signals (ex337 nm, em665 nm/620 nm) were recorded on a PHERAstar FSX plate reader (BMG Labtech). The inhibition percentage of CDK4/Cyclin D1 or CDK6/Cyclin D3 kinase activity in presence of increasing concentrations of compounds was calculated based on the ratio of fluorescence at 665 nm to that at 620 nm. The IC50 for each compound was derived from fitting the data to the four-parameter logistic equation by Dotmatics.

CDK4/Cyclin D1 = CDK4/Cyclin D1 (Homo sapiens (Human), UniProt P11802); test: CDK4/Cyclin D1 kinase TR-FRET inhibition assay; type: biochemical; conditions: 1 mM ATP, Rb (Ser780)-biotin substrate, read-out: CDK4D1 IC50
CDK4/Cyclin D1, sequence (P11802 whole entry): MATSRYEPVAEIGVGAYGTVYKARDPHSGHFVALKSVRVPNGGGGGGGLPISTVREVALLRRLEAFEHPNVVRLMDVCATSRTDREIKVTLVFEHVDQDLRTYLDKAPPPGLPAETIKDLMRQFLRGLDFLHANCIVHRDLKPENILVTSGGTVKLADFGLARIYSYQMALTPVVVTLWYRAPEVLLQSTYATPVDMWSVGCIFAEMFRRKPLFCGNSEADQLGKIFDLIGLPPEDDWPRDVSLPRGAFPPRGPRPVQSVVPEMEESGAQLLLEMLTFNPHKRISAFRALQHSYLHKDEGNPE
CDK4/Cyclin D1, sequence (P24385 whole entry partner): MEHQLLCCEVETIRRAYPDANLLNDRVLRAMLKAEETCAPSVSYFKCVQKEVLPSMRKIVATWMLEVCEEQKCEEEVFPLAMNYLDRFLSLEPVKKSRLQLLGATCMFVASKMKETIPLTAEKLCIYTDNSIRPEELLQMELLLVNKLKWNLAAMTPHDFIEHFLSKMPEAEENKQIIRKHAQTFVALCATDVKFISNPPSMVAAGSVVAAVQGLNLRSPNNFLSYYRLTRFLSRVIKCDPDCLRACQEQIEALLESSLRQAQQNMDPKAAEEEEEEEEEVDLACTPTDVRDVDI
Method: as §1

CDK6/Cyclin D3, sequence (Q00534 whole entry): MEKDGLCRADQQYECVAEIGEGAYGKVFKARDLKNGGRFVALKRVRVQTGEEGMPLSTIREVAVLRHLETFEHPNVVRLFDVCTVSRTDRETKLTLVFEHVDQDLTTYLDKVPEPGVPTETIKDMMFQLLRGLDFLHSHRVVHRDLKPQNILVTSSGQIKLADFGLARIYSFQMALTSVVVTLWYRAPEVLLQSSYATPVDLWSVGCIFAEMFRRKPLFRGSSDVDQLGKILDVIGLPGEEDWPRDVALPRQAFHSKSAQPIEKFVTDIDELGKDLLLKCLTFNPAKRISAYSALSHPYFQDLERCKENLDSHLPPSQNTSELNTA
CDK6/Cyclin D3, sequence (P30281 whole entry partner): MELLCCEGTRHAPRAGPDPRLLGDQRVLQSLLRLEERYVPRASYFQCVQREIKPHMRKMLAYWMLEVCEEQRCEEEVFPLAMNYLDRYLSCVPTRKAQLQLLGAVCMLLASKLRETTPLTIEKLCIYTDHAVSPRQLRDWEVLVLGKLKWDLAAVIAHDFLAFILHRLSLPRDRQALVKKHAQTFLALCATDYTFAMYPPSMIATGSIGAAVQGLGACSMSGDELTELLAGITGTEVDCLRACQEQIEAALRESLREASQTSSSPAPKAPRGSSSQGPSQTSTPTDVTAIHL

Compound | IC50 (CDK6/Cyclin D3) | IC50 (CDK4/Cyclin D1)
CC(C)c1c([C@@H](C)N2CC[C@@H](F)C2)cnc2ccc(-c3nc(N[C@@H]4CCOC[C@H]4O)ncc3F)cc12 [Example 48, (3S,4R)-4-((5-fluoro-4-(3-((R)-1-((R)-3-fluoropyrrolidin-1-yl)ethyl)-4-isopropylquinolin-6-yl)pyrimidin-2-yl)amino)tetrahydro-2H-pyran-3-ol] | 756 nM | 21 nM
CC(C)c1c([C@H](C)N)cnc2ccc(-c3nc(N[C@@H]4CCOC[C@H]4O)ncc3F)cc12 [Example 55, (3S,4R)-4-((4-(3-((S)-1-aminoethyl)-4-isopropylquinolin-6-yl)-5-fluoropyrimidin-2-yl)amino)tetrahydro-2H-pyran-3-ol] | 1090 nM | 34 nM
CC(C)c1c(CN2CCC[C@H](O)C2)cnc2ccc(-c3nc(N[C@@H]4CCOC[C@H]4O)ncc3F)cc12 [Example 57, (S)-1-((6-(5-fluoro-2-(((3S,4R)-3-hydroxytetrahydro-2H-pyran-4-yl)amino)pyrimidin-4-yl)-4-isopropylquinolin-3-yl)methyl)piperidin-3-ol] | 486 nM | 18 nM
CC(C)c1c(CN2CCOC[C@H]2C)cnc2ccc(-c3nc(N[C@@H]4CCOC[C@H]4O)ncc3F)cc12 [Example 58, (3S,4R)-4-((5-fluoro-4-(4-isopropyl-3-(((R)-3-methylmorpholino)methyl)quinolin-6-yl)pyrimidin-2-yl)amino)tetrahydro-2H-pyran-3-ol] | 406 nM | 14 nM
CC(C)c1c(CNc2ccccn2)cnc2ccc(-c3nc(N[C@@H]4CCOC[C@H]4O)ncc3F)cc12 [Example 59, (3S,4R)-4-((5-fluoro-4-(4-isopropyl-3-((pyridin-2-ylamino)methyl)quinolin-6-yl)pyrimidin-2-yl)amino)tetrahydro-2H-pyran-3-ol] | 3590 nM | 46 nM
CC(C)c1c(CN2C3CCCC2CC(O)C3)cnc2ccc(-c3nc(N[C@@H]4CCOC[C@H]4O)ncc3F)cc12 (stereo partly drawn) [Example 60, (1R,3R,5S)-9-((6-(5-fluoro-2-(((3S,4R)-3-hydroxytetrahydro-2H-pyran-4-yl)amino)pyrimidin-4-yl)-4-isopropylquinolin-3-yl)methyl)-9-azabicyclo[3.3.1]nonan-3-ol] | 585 nM | 15 nM
CC(C)c1c(CN2CCC[C@H](C#N)C2)cnc2ccc(-c3nc(N[C@@H]4CCOC[C@H]4O)ncc3F)cc12 [Example 61, (S)-1-((6-(5-fluoro-2-(((3S,4R)-3-hydroxytetrahydro-2H-pyran-4-yl)amino)pyrimidin-4-yl)-4-isopropylquinolin-3-yl)methyl)piperidine-3-carbonitrile] | 426 nM | 8.7 nM
CC(C)c1c(CN2CCC[C@@H](C#N)C2)cnc2ccc(-c3nc(N[C@@H]4CCOC[C@H]4O)ncc3F)cc12 [Example 62, (R)-1-((6-(5-fluoro-2-(((3S,4R)-3-hydroxytetrahydro-2H-pyran-4-yl)amino)pyrimidin-4-yl)-4-isopropylquinolin-3-yl)methyl)piperidine-3-carbonitrile] | 572 nM | 11 nM
CC(C)c1c(CN2[C@H](C)COC[C@@H]2C)cnc2ccc(-c3nc(N[C@@H]4CCOC[C@H]4O)ncc3F)cc12 [Example 68] | 395 nM | 8.7 nM
CC(C)c1c(C(C)(C)O)cnc2cc(Cl)c(-c3nc(N[C@@H]4CCOC[C@H]4O)ncc3F)cc12 [Example 70, (3S,4R)-4-((4-(7-chloro-3-(2-hydroxypropan-2-yl)4-isopropylquinolin-6-yl)-5-fluoropyrimidin-2-yl)amino)tetrahydro-2H-pyran-3-ol] | 508 nM | 31 nM

Other lines, results leading:

IC50 (CDK6/Cyclin D3) | IC50 (CDK4/Cyclin D1) | Compound
250 nM | 25 nM | CC(C)c1c([C@H](C)N2CC[C@@H](F)C2)cnc2ccc(-c3nc(N[C@@H]4CCOC[C@H]4O)ncc3F)cc12 [Example 47, (3S,4R)-4-((5-fluoro-4-(3-((S)-1-((R)-3-fluoropyrrolidin-1-yl)ethyl)-4-isopropylquinolin-6-yl)pyrimidin-2-yl)amino)tetrahydro-2H-pyran-3-ol]
392 nM | 14 nM | CC(C)c1c(CN2C[C@H]3C[C@@H]2CO3)cnc2ccc(-c3nc(N[C@@H]4CCOC[C@H]4O)ncc3F)cc12 [Example 49, (3S,4R)-4-((4-(3-(((1R,4R)-2-oxa-5-azabicyclo[2.2.1]heptan-5-yl)methyl)-4-isopropylquinolin-6-yl)-5-fluoropyrimidin-2-yl)amino)tetrahydro-2H-pyran-3-ol]
185 nM | 4.4 nM | CC(C)c1c(C2(O)CCCC2)cnc2ccc(-c3nc(N[C@@H]4CCOC[C@H]4O)ncc3F)cc12 [Example 50, (3S,4R)-4-((5-fluoro-4-(3-(1-hydroxycyclopentyl)-4-isopropylquinolin-6-yl)pyrimidin-2-yl)amino)tetrahydro-2H-pyran-3-ol]
67.2 nM | 4.2 nM | CC(C)c1c(CO)cnc2c(F)cc(-c3nc(N[C@@H]4CCOC[C@H]4O)ncc3F)cc12 [Example 51, (3S,4R)-4-((5-fluoro-4-(8-fluoro-3-(hydroxymethyl)-4-isopropylquinolin-6-yl)pyrimidin-2-yl)amino)tetrahydro-2H-pyran-3-ol]
240 nM | 10 nM | CC(C)c1c(CNC2CC(F)(F)C2)cnc2c(F)cc(-c3nc(N[C@@H]4CCOC[C@H]4O)ncc3F)cc12 [Example 52, (3S,4R)-4-((4-(3-(((3,3-difluorocyclobutyl)amino)methyl)-8-fluoro-4-isopropylquinolin-6-yl)-5-fluoropyrimidin-2-yl)amino)tetrahydro-2H-pyran-3-ol]
348 nM | 12 nM | CC(C)c1c(CN[C@@H]2CCCOC2)cnc2c(F)cc(-c3nc(N[C@@H]4CCOC[C@H]4O)ncc3F)cc12 [Example 53, (3S,4R)-4-((5-fluoro-4-(8-fluoro-4-isopropyl-3-((((R)-tetrahydro-2H-pyran-3-yl)amino)methyl)quinolin-6-yl)pyrimidin-2-yl)amino)tetrahydro-2H-pyran-3-ol]
361 nM | 19 nM | CC(C)c1c(CN2C[C@@H](O)[C@H](F)C2)cnc2ccc(-c3nc(N[C@@H]4CCOC[C@H]4O)ncc3F)cc12 [Example 54, (3R,4R)-4-fluoro-1-((6-(5-fluoro-2-(((3S,4R)-3-hydroxytetrahydro-2H-pyran-4-yl)amino)pyrimidin-4-yl)-4-isopropylquinolin-3-yl)methyl)pyrrolidin-3-ol]
214 nM | 3.5 nM | CC(C)c1c([C@@H](C)N)cnc2ccc(-c3nc(N[C@@H]4CCOC[C@H]4O)ncc3F)cc12 [Example 56, (3S,4R)-4-((4-(3-((R)-1-aminoethyl)-4-isopropylquinolin-6-yl)-5-fluoropyrimidin-2-yl)amino)tetrahydro-2H-pyran-3-ol]
42.7 nM | 2.5 nM | CC(C)c1c(C(C)(C)O)cnc2c(F)cc(-c3nc(N[C@@H]4CCOC[C@H]4O)ncc3F)cc12 [Example 67, (3S,4R)-4-((5-fluoro-4-(8-fluoro-3-(2-hydroxypropan-2-yl)-4-isopropylquinolin-6-yl)pyrimidin-2-yl)amino)tetrahydro-2H-pyran-3-ol]
355 nM | 8.3 nM | CC(C)c1c(CN2[C@H](C)COC[C@H]2C)cnc2ccc(-c3nc(N[C@@H]4CCOC[C@H]4O)ncc3F)cc12 [Example 69, (3S,4R)-4-((4-(3-(((3R,5R)-3,5-dimethylmorpholino)methyl)-4-isopropylquinolin-6-yl)-5-fluoropyrimidin-2-yl)amino)tetrahydro-2H-pyran-3-ol]
198 nM | 10.9 nM | CC(C)c1c(C(C)(C)O)cnc2cc(F)c(-c3nc(N[C@@H]4CCOC[C@H]4O)ncc3F)cc12 [Example 116, (3S,4R)-4-((5-fluoro-4-(7-fluoro-3-(2-hydroxypropan-2-yl)-4-isopropylquinolin-6-yl)pyrimidin-2-yl)amino)tetrahydro-2H-pyran-3-ol]
54 nM | 2.1 nM | CC(C)c1c(C(C)(C)O)cnc2c(F)cc(-c3nc(N[C@@H]4CCOC[C@H]4O)ncc3Cl)cc12 [Example 117, (3S,4R)-4-((5-chloro-4-(8-fluoro-3-(2-hydroxypropan-2-yl)-4-isopropylquinolin-6-yl)pyrimidin-2-yl)amino)tetrahydro-2H-pyran-3-ol]
149 nM | 23.5 nM | Cc1c(-c2nc(N[C@@H]3CCOC[C@H]3O)ncc2F)ccc2ncc(CO)c(C(C)C)c12 [Example 120, (3S,4R)-4-((5-fluoro-4-(3-(hydroxymethyl)-4-isopropyl-5-methylquinolin-6-yl)pyrimidin-2-yl)amino)tetrahydro-2H-pyran-3-ol]
66.1 nM | 1.7 nM | Cc1c(-c2nc(N[C@@H]3CCOC[C@H]3O)ncc2F)ccc2ncc(CN)c(C(C)C)c12 [Example 145, (3S,4R)-4-((4-(3-(aminomethyl)-4-isopropyl-5-methylquinolin-6-yl)-5-fluoropyrimidin-2-yl)amino)tetrahydro-2H-pyran-3-ol]
